# Columns and labels:
# [1] = system: human pancreatic cancer Mia PaCa-2 cells xenograft; assay: Subcutaneous xenograft tumor model of Mia PaCa-2 cells in BALB/c nude mouse; format: in vivo; conditions: Mia PaCa-2 xenograft, BALB/c nude mice, gavage once a day; for TGI(%): Day 21
# Experimental: The in vivo efficacy of the representative compounds of the present disclosure in the subcutaneous xenograft tumor model of human pancreatic cancer Mia PaCa-2 cells was evaluated.
# [Test materials]: BALB/c nude mice of 6-8 weeks, female, Zhejiang Vital River Laboratory Animal Technology Co., Ltd. Human pancreatic cancer Mia PaCa-2 cells (ATCC, Cat #: CRL-1420). Matrigel (Matrigel, Corning, Cat. No. 356234).
# [Experimental procedure]: 0.2 mL (5×10^6) Mia PaCa-2 cells (plus Matrigel, volume ratio 1:1) were inoculated subcutaneously on the right back dorsal of each mouse. […] During the assay, tumor volumes and body weights were measured twice a week.
# The tumor volume was calculated according to the following formula: V=0.5a×b^2, where a and b represent the long and short diameters of the tumor, respectively.
# [2] = Pharmacokinetics in rats, IV and oral; format: in vivo, SD rats; conditions: rat
# Experimental: 2.2 Pharmacokinetic Properties of Representative Examples of the Present Disclosure
# [Test materials] Same as above 2.1.
# [Experimental procedure]: IV injection administration was performed on rats according to the similar procedure described in 2.1 above, with a drug concentration of 3 mg/mL, and the drug preparation, administration and sample collection were performed by reference to 2.1 above. For the oral administration group, the drug was formulated to a 3 mg/mL suspension in 0.5% methylcellulose MC-400cp (Aladdin, M112866), and gavage administered in 10 mL/kg. Blood samples were collected at the time points of 0.25, 0.5, 1, 2, 4, 6, 8 and 24 hours after administration via external jugular vein puncture, centrifuged at low temperature for 20 minutes, and the plasma samples were collected and stored at −80° C. until analysis.
# The subsequent sample analysis and data processing are similar to those described in 2.1.
"AUC(0-inf) ([2]; male, SD, plasma, IV, 3 mg/kg) [ng·h/mL]","AUC(0-t) ([2]; male, SD, plasma, IV, 3 mg/kg) [ng·h/mL]","Vd ([2]; male, SD, plasma, IV, 3 mg/kg) [L/kg]","clearance ([2]; male, SD, plasma, IV, 3 mg/kg) [mL/min/kg]","half-life ([2]; male, SD, plasma, IV, 3 mg/kg) [h]","AUC(0-inf) ([2]; male, SD, plasma, PO, 30 mg/kg) [ng·h/mL]","AUC(0-t) ([2]; male, SD, plasma, PO, 30 mg/kg) [ng·h/mL]","Cmax ([2]; male, SD, plasma, PO, 30 mg/kg) [ng/mL]","Tmax ([2]; male, SD, plasma, PO, 30 mg/kg) [h]",F ([2]; PO 30 mg/kg vs IV 3 mg/kg) [%],SMILES,Tumor volume (mm^3) (Day 21) ([1]; 10 mpk),TGI(%) ([1]; 10 mpk),Tumor volume (mm^3) (Day 21) ([1]; 3 mpk),TGI(%) ([1]; 3 mpk),Tumor volume (mm^3) (Day 21) ([1]; 30 mpk),TGI(%) ([1]; 30 mpk)
–,–,–,–,–,–,–,–,–,–,"C=CC(=O)N1CCN(c2nc(=O)n(-c3c(C)ccnc3C(C)C)c3nc(-c4c(O)cccc4F)c(F)cc23)[C@@H](C)C1 (atropisomer, axis not shown) [AMG510, reference compound]",432,72.3,–,–,–,–
3310,3310,0.63,15.6,0.67,7870,7780,2390,1.33,23.8,"C=CC(=O)N1CCN(c2c(C#N)cnc3c(F)c(-c4ccc(F)c5sc(N)nc45)c(Cl)cc23)CC1 [Example 9, 4-(4-Acryloylpiperazin-1-yl)-7-(2-amino-7-fluorobenzo[d]thiazol-4-yl)-6-chloro-8-fluoroquinoline-3-carbonitrile]",246,89.8,665,50.4,162,97.7

# Reference: patent US20230406849A1, “KRAS INHIBITORS FOR TREATMENT OF CANCERS” (TYLIGAND BIOSCIENCE (SHANGHAI) LIMITED, priority 2020, published 2023)
